# Results taken from US20210002231A1 (Centre National de la Recherche Scientifique, priority 2018, published 2021).
# System: C57BL/6N mice
# Assay: Naltrexone-precipitated withdrawal syndrome
# Format: in vivo
# Settings: twice daily sc. for 7 days, KGFF09 7.4 μmol/kg; in comparison to the other compounds
# Protocol: On day 7, two hours after the last drug injection, the withdrawal syndrome was precipitated by administration of naltrexone (5 mg/kg, sc.) and evaluated over 30 min. Jumping, paw tremors and wet dog shakes were recorded as number of events occurring during the total test time. Diarrhea was checked for 30 min with one point given for any signs of it during each 5 min period (maximum score: 6). Body weight was measured immediately before and after each 30 min test session, and percentage of body weight lost during the test was calculated. For each mouse, a global opiate withdrawal score was also calculated by summing the values obtained for each sign. For this purpose one point was assigned to every 3 jumps and 5 paw tremors, respectively, whereas all other signs were given the absolute values recorded during the test.
compound,measurement,value
"Cc1cc(O)cc(C)c1C[C@H](N)C(=O)N[C@H](CCCNC(=N)N)C(=O)N[C@H]1Cc2ccccc2CN(CCC(=O)N[C@@H](CCCN2CCC(Cc3ccccc3)CC2)C(=O)N[C@@H](Cc2ccccc2)C(N)=O)C1=O [KGFF09, H-Dmt-D-Arg-Aba-β-Ala-Bpa-Phe-NH2]","global opiate withdrawal score, reduced to",circa 50%
